The nature of data set [1]: Study 4: in-life observations (mortality, clinical signs, body weight). The settings on record: both treatment groups, 12 mg/kg IV on days 1, 7, 13, 19, nude mice.
Method: (§1) DU145 cells (5×106) at their exponential growth phase were inoculated subcutaneously on the dorsal right flank in athymic female mice. […] Animals in the vehicle control group received 5 w/v % dextrose solution. Growth of prostate xenografts (tumor volume) and whole body weights were recorded twice weekly (on days 1, 3, 5, 8, 10, 15, 17, 19) during treatment period. Animals were also monitored for clinical signs and mortality everyday throughout the study. On the day of sacrifice (day 19), blood and tumors were collected from set of animals (4 animals in each time point) at stipulated time points (1, 2, 3, and 4 h post-dose). At the end of blood collection, animals were humanely euthanized by cervical dislocation and tumor in toto was harvested from all the animals, transferred to pre-labeled microcentrifuge tubes before flash freezing in liquid nitrogen.
The conditions of data set [2]: mouse, in vivo, iv, 12 mg/kg.
Method: as §1

The values that follow come from patent US20170119726A1, “Stabilized Cabazitaxel Formulations” (Cipla (UK) Limited, priority 2015, published 2017).

As for `CO[C@H]1C(=O)[C@]2(C)[C@@H](OC)C[C@H]3OC[C@@]3(OC(C)=O)[C@H]2[C@H](OC(=O)c2ccccc2)[C@]2(O)C[C@H](OC(=O)[C@H](O)[C@@H](NC(=O)OC(C)(C)C)c3ccccc3)C(C)=C1C2(C)C` [Cabazitaxel, (2α,5β,7β,10β, 13α)-4-acetoxy-13-({(2R,3S)-3[(tertbutoxycarbonyl)amino]-2-hydroxy-3-phenylpropanoyl}-oxy)-1-hydroxy-7,10-dimethoxy-9-oxo-5,20-epoxytax-11-en-2-yl benzoate], the mortality entry in data set [1] is recorded as “no mortality was observed”. The tolerability result in data set [2] is “well tolerated”.
